The source of these data is patent US4102918A, “Anionic phenylcarboxamide complement inhibitors” (American Cyanamid Company, priority 1977, dated 1978).

SMILES strings stand for the structures. Where a name gives a salt, the structure may show the parent alone.

What all share (conditions): activity in wells, two-fold serial dilution assay; higher well number indicates higher activity
For one assay, the system named is shunt pathway. Put plainly: Test, Code 036 (C-shunt inhibitor), lysis of fragile human erythrocytes in autologous serum, cobra venom factor activated. It counts as cell-based. From the text: (§1) An active inhibitor protects C2 from C1 and C4; (ii) Test, Code 035 (C3-C9 inhibitor) -- This test determines the ability of the late components of human complement (C3-C9) to lyse EAC 142 in the presence of appropriate dilutions of the test compound. An active inhibitor protects EAC 142 from lysis by human C3-C9; (iii) Test, Code 036 (C-shunt inhibitor) -- In this test human erythrocytes rendered fragile are lysed in autologous serum via the shunt pathway activated by cobra venom factor in the presence of appropriate dilutions of the test compound. Inhibition of the shunt pathway results in failure of lysis; (iv) Forssman Vasculitis Test -- Here, the well known complement dependent lesion, Forssman vasculitis, is produced in guinea pigs by intradermal injection of rabbit anti-Forssman antiserum. The lesion is measured in terms of diameter, edema and hemorrhage and the extent to which a combined index of these is inhibited by prior intraperitoneal injection of the test compound at 200 mg/kg is then reported, unless otherwise stated; (v) Forssman Shock Test -- Lethal shock is produced in guinea pigs by an i.v. injection of anti-Forssman antiserum and the harmonic mean death time of treated guinea pigs is compared with that of simultaneous controls; (vi) Complement Level Reduction Test -- In this test, the above dosed guinea pigs, or others, are bled for serum and the complement level is determined in undiluted serum by the capillary tube method of U.S. Pat. No. 3,876,376 and compared to undosed control guinea pigs; and (vii) Cap 50 Test -- Here, appropriate amounts of the test compound are added to a pool of guinea pig serum in vitro, after which the undiluted serum capillary tube assay referred to above is run. The concentration of compound inhibiting 50% is reported.

Another assay deals with T1, activated human C1 (Homo sapiens, UniProt P09871).
T1 construct: fluid-phase C2 cleavage in presence of C4
T1 sequence (P09871 16-688): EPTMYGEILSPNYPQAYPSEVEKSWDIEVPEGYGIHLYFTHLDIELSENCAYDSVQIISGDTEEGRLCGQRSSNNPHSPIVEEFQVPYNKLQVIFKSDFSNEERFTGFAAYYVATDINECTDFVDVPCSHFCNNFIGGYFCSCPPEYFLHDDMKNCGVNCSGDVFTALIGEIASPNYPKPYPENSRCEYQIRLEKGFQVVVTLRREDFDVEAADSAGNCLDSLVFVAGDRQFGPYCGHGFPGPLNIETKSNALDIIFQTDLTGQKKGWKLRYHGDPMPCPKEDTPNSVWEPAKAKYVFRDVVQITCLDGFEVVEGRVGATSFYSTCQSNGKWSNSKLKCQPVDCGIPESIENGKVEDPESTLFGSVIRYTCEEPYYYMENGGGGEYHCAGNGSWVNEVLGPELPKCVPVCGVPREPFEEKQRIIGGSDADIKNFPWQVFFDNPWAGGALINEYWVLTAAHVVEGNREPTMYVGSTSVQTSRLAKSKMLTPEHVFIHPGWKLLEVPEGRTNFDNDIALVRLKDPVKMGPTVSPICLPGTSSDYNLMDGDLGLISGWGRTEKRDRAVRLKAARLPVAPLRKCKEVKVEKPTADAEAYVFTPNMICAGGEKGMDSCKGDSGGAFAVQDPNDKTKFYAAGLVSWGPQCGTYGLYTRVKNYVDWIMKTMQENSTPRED
T1 sequence (P00736 18-705 partner): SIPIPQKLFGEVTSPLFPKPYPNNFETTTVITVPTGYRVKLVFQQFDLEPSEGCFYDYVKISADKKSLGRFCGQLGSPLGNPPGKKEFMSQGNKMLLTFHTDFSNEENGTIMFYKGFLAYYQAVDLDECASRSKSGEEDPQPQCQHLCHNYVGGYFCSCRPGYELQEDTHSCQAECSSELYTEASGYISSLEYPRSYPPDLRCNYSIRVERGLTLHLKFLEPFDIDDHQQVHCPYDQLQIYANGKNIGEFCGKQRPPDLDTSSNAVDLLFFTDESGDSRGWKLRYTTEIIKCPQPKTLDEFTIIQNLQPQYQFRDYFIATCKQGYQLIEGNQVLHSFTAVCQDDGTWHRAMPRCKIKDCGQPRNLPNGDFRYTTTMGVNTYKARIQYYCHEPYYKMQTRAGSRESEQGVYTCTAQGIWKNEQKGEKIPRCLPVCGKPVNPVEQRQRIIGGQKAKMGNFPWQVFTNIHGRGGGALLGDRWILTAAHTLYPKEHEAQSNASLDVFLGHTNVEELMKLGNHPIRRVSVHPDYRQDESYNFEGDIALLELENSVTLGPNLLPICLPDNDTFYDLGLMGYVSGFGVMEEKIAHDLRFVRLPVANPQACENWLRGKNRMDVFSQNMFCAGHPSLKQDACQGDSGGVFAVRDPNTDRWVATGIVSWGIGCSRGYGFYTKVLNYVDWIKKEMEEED
T1 sequence (P02745 23-245 partner): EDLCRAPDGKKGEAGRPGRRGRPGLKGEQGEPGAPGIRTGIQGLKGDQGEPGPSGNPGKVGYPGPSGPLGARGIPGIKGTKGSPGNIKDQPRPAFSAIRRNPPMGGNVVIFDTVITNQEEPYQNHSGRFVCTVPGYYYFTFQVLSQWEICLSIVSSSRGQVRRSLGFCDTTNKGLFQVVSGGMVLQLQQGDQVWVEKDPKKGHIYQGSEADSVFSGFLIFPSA
T1 sequence (P02746 28-253 partner): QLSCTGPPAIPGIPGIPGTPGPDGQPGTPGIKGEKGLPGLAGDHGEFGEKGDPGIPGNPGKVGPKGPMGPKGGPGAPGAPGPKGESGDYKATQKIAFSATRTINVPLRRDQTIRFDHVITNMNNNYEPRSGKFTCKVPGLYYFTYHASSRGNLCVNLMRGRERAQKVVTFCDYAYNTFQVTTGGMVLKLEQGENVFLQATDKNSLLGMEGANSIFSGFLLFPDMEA
T1 sequence (P02747 29-245 partner): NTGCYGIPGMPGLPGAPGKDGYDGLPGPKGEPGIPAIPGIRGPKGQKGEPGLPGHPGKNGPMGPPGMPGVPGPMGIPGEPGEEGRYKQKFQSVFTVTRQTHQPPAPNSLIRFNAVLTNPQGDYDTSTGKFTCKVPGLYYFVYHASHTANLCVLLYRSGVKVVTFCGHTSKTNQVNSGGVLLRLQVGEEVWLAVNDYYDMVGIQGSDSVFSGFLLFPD
Put plainly: Test, Code 026 (C1 inhibitor). It counts as biochemical.
Excerpt: as §1

The test system of assay [1] is late components of human complement (C3-C9). Briefly: Test, Code 035 (C3-C9 inhibitor), lysis of EAC 142. It counts as biochemical.
Excerpt: as §1

Take `O=C(Nc1cc(C(=O)O)c(O)c(S(=O)(=O)O)c1)c1cc(C(=O)Nc2cc(C(=O)O)c(O)c(S(=O)(=O)O)c2)cc([N+](=O)[O-])c1` [5,5'-[(5-Nitro-1,3-phenylene)bis(carbonylimino)]bis[3-sulfosalicylic acid]disodium salt]: the “Shunt Inhibition 036 Wells” value with shunt pathway is recorded as “N”. For the same compound, the “Cl 026 Wells” value on activated human C1 is “+2 Wells”. Moreover, the “C-Late 035 Wells” value in assay [1] is “N”.
Regarding `O=C(Nc1ccc(O)c(C(=O)O)c1)c1cc(C(=O)Nc2ccc(O)c(C(=O)O)c2)cc([N+](=O)[O-])c1` [5,5'-[5-Nitro-m-phenylenebis(carbonylimino)]disalicylic acid], the “Shunt Inhibition 036 Wells” value in the assay on shunt pathway was “N”. The “Cl 026 Wells” value on activated human C1 is reported as “α”. The “C-Late 035 Wells” value in assay [1] was “N”.
Regarding `Nc1cc(C(=O)Nc2cc(C(=O)O)c(O)c(S(=O)(=O)O)c2)cc(C(=O)Nc2cc(C(=O)O)c(O)c(S(=O)(=O)O)c2)c1` [5,5'-[5-Amino-1,3-phenylenebis(carbonylimino)]bis[3-sulfosalicylic acid]disodium salt], the “Shunt Inhibition 036 Wells” value with shunt pathway is “N”. On activated human C1, the “Cl 026 Wells” value was “+2 Wells”. Moreover, the “C-Late 035 Wells” value in assay [1] was “N”.
